Measurements reported in the METLIN SMRT retention time set (Domingo-Almenara et al. 2019).

Assay: gradient 5% acetonitrile 3 min, to 50% in 2 min, to 85% in 15 min, held 3 min, 100 µL/min
Details: column: Zorbax Extend-C18 2.1 x 50 mm; eluents: water / acetonitrile, 0.1% formic acid
Summary of the method: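 A Zorbax Extend-C18 column (2.1 × 50 mm, 1.8 μm) run at 100 μL/min with water and acetonitrile, both containing 0.1% formic acid, separated mixtures of ~100 pure standards. The HPLC was coupled to a quadrupole time-of-flight mass spectrometer operated in positive and negative ionization mode, with dead and dwell volumes of 40 μL and 900 μL. Each retention time was taken from a computationally picked adduct peak that was then manually inspected.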

Compound	RP-LC retention time
Cc1c(-c2nn3c(Cc4ccccc4)nnc3s2)nnn1-c1ccc(Cl)cc1	1040 s
O=C(NCC1CCS(=O)(=O)C1)c1cccnc1 (configuration not stated)	565 s
O=[N+]([O-])c1cccnc1Oc1cc(Cl)c(Cl)cc1Cl	1220 s
CN1C2CCC1CC(OC(c1ccc(F)cc1)c1ccc(F)cc1)C2 (configuration not stated)	838 s
CCN(CC)c1ccc(NC(=O)C2CCCN(C(=O)c3cc(C)cc(C)c3)C2)c(C)c1 (configuration not stated)	659 s
CC(C)NC(=O)NCCC1CCN(S(=O)(=O)c2ccc(F)cc2)CC1	782 s
CCC(c1cccs1)N1C(=O)[C@H]2CN(S(=O)(=O)c3cccc(F)c3)C[C@H]2C1=O (some centres not stated)	972 s
O=C(Nc1nnc(CCS(=O)(=O)c2ccccc2)o1)C1COc2ccccc2O1 (configuration not stated)	686 s
Cc1oc(-c2[nH]ncc2C(=O)N2CCCC2)cc1S(=O)(=O)NCc1ccccc1Cl	715 s
CCC(C)[C@H](NC(=O)N1C[C@H]2C[C@@H](C1)c1cccc(=O)n1C2)C(=O)OC (some centres not stated)	624 s
CCC(=O)NCCc1c[nH]c2ccc(Cl)cc12	743 s
COc1cc(-c2nnc(-c3ccc(C)c(S(=O)(=O)N(C)C)c3)o2)cc(OC)c1OC	936 s
Cc1cc(C(=O)NCCN2CCOCC2)c2cc(Br)ccc2n1	582 s
O=C(Nc1nnc(C2CCCCC2)o1)c1c[nH]c2ccccc12	714 s
CCCN(CC1CCOC1)C(=O)C1CCCCC1 (configuration not stated)	827 s
Cc1ccc(-c2noc(C3CCCN3S(=O)(=O)c3cccc(Cl)c3C)n2)cc1 (configuration not stated)	1270 s

Compound	RP-LC retention time
Cc1c(CC(=O)N2CCC(C(N)=O)CC2)c(=O)oc2cc3oc4c(c3cc12)CCCC4	764 s
CC1(C)C(=O)NCCN1C(=O)c1cccc(C(F)(F)F)c1	662 s
CC(C)NC(=O)N1CCCC(c2cccc(C(=O)NCCN3CCCC3)c2)C1 (configuration not stated)	862 s
COc1ccc(-c2ccnc3nc(C4CC4)nn23)cc1	805 s
O=S(=O)(c1ccccc1Cl)N1CC(c2nc(Cc3ccccc3)no2)C1	951 s
O=C(NCc1ccc(C(F)(F)F)cc1)C1CCCN(c2cn[nH]c(=O)c2)C1 (configuration not stated)	712 s
CCOC(=O)C1CCN(S(=O)(=O)c2ccc3onc(C(=O)N4CCCC4)c3c2)CC1	993 s
CCNC(=O)c1sc2nc(-c3cccc(F)c3)c(NCCCOC)n2c1C	844 s
O=C(CCc1nc2ccccc2s1)NCC12CCCC=C1N(CC1CC1)C(=O)CC2 (configuration not stated)	863 s
CCc1nc(-c2ccc3c(c2)CCN3C(=O)c2ccco2)no1	914 s
NC(=O)COC1CCC12CCN(C(=O)C1CCCCC1)CC2 (configuration not stated)	715 s
CC1Cc2cc(S(=O)(=O)N3CCC(C(N)=O)(N4CCCCC4)CC3)ccc2N1C(=O)C1CC1 (configuration not stated)	630 s
CN(C)c1cc(C(=O)NCc2ccncc2)nc2ccnn12	581 s
Cc1ccc(Nc2nc(-c3ccc(I)cc3)cs2)cc1C	1120 s
Cc1noc([C@@H]2CN(C(=O)c3cscn3)C[C@H]2C(N)=O)n1	556 s
Cc1noc(C2CN(C(=O)Nc3ccc(F)cc3)CC23CCOCC3)n1 (configuration not stated)	723 s

The next lines start with the values.

RP-LC retention time	Compound
926 s	COC(=O)c1cccc(NC(=O)CSc2cc(N3CCN(c4ccccc4OC)CC3)ncn2)c1
944 s	CCOC(=O)c1ccc(NC(=O)Cn2ccc3ccc(-c4nnc(C)o4)cc32)cc1
780 s	COc1cccc(NC(=O)Nc2ccc(Cl)c(N3CCCS3(=O)=O)c2)c1OC
1370 s	O=C(NC1CCCCCCC1)C1CCCN(c2nc3ccccc3n(Cc3ccccc3)c2=O)C1 (configuration not stated)
828 s	Cc1cc(C)n2c(Nc3ccc(C(C)C)cc3)c(-c3ccccc3)nc2n1
648 s	O=C(c1cccc(F)c1)N1CCN(c2cnn3c(C4CC4)nnc3c2)CC1
753 s	COc1cc(NC(=O)C2CC(=O)N(CCc3c[nH]c4ccc(C)cc34)C2)cc(OC)c1OC (configuration not stated)
770 s	Cc1cc(-c2nnc(-c3ccccc3)o2)c(C)n1CC(=O)NCC1CCCO1 (configuration not stated)
595 s	CCCNC(=O)C1CCN(c2ccc(SCC(=O)Nc3ccc(OC)c(OC)c3)nn2)CC1
706 s	N#Cc1cccc(NC(=O)C2CCN(S(=O)(=O)c3ccc4[nH]c(=O)ccc4c3)CC2)c1
745 s	Cc1ccc(NC(=O)N2CCC3(C2)C(=O)Nc2ccccc23)cc1 (configuration not stated)
904 s	Cc1ccc2[nH]cc(CCNC(=O)COc3ccccc3)c2c1
880 s	O=S(=O)(c1cccn2c(SCc3ccccc3Cl)nnc12)N1CCCC1
748 s	CCn1cnc(S(=O)(=O)N2CCCC(C(=O)Nc3ccc(C)cc3)C2)c1 (configuration not stated)
751 s	COC(=O)c1ccc2c(=O)n(-c3ccc(OC)c(OC)c3)c(N3CCCC3)nc2c1
813 s	Cc1nc(-c2nc(-c3cccs3)cs2)cn1CC(=O)N1CCN(c2ccccc2)CC1
781 s	O=C(CSc1nnc2c3cc(-c4ccccc4)nn3ccn12)NCc1ccccc1
1020 s	Cc1cccc(NC(=O)C2CCN(S(C)(=O)=O)c3cc(Cl)ccc3O2)c1 (configuration not stated)

RP-LC retention time	Compound
708 s	O=C(Cn1nc2c(N3CCCCCC3)nccn2c1=O)Nc1ccccc1Cl
680 s	O=C(Cn1nc(Cc2cccnc2)c2ccccc2c1=O)N1CC=C(c2ccccc2)CC1
765 s	O=C(Nc1cccc(NC(=O)c2cccc(O)c2O)c1)c1cccc(O)c1O
683 s	Cc1cccc2nnc(N3CCN(C(=O)c4ccc(Br)cc4)CC3)n12
697 s	COc1ccc(C(=O)Nc2c(-c3ccc(F)cc3)nc3cc(C)ccn23)c(OC)c1
829 s	O=C(C1CCN(c2cnn(Cc3ccccc3)c(=O)c2)CC1)N1CCc2ccccc2C1
598 s	O=C(Nc1ccccc1)C1CCCN(c2nnc3ccccn23)C1 (configuration not stated)
840 s	CCOc1ccc(C(=O)N(c2ccccc2CC)C2C=CS(=O)(=O)C2)cc1OCC (configuration not stated)
865 s	CCCn1cc(CCNC(=O)Nc2cccc(Br)c2)c2cccnc21
955 s	COc1ccc(-n2ccnc(NC(=O)Nc3ccc(C)c(C)c3)c2=O)cc1OC
853 s	NC(=O)c1ccccc1NC(=O)Cc1cn(Cc2ccccc2)c2ccccc12
619 s	Cc1nc2cccnc2n1CCN1CCN(C(=O)Nc2ccc(Br)cc2)CC1
689 s	O=C(NCc1ccccc1F)C1CCN(c2cnc3nccnc3c2)CC1
942 s	COc1ccc(Cl)cc1NC(=O)c1cc(C)n2nccc2n1
1040 s	Cc1ccc2c(c1)N(Cc1nc(-c3ccccc3Cl)no1)C(=O)CO2
1200 s	CCOc1ccc2cccc(NC(=O)c3ccccc3C(F)(F)F)c2n1
739 s	CS(=O)(=O)c1ccc(CC(=O)N2CCN(c3ccc(=O)n(-c4ccc(Cl)cc4)n3)CC2)cc1
